The IC50 is the concentration needed to halve the response being measured.

Consider two compounds from patent US6730703B2, “Dual inhibitors of cholesteryl ester and wax ester synthesis for sebaceous gland disorders” (Warner-Lambert Company, priority 2000, dated 2004).

In data set [1] the test system is AFAT (acyl-Coenzyme A: fatty alcohol acyltransferase). The data set can be described thus: Inhibition of wax ester (WE) synthesis in mouse preputial gland microsomes. To be noted: for IC50: read-out: Inhibition of Wax Ester (WE) Synthesis IC50, mouse preputial microsome preparation, [14C]hexadecanol label, oleoyl coenzyme A.
Description: (§1) a) The rats or mice are anesthetized with ether, and the PGs are removed and placed in a beaker containing wash buffer (ice cold).
(§2) b) As soon as possible, the PGs are homogenized in a Potter-Elvehjem homogenizer with 15 mL of homogenizing buffer. The homogenizer is kept in a small ice bath. Work the plunger until it reaches the bottom of the tube 10 times.
(§3) k) Add 1 mL of 0.2 M KPO4 buffer pH 7.4 to half of the bottles in an ice bath. Scrape the whole pellet loose with a teflon rod and transfer to a 15 mL homogenizer. Wash bottle with 1 mL of buffer and transfer to one of the bottles that has a pellet but no buffer. Homogenize gently by hand. Aliquot into Cryovials (Nalgene™) and store in liquid nitrogen. The microsomes remain active for at least 2 years.
(§4) m) Determine the protein concentration of the homogenate by the Lowry method. […] Desired protein concentration is 20 mg/mL rat or mouse PG microsomes.
(§5) C. [4-^14C]Cholesteryl or [(1-^14C]Hexadecanol. Evaporate the toluene from the vial. Re-suspend radiolabel in 0.1 mL 2-propanol.
(§6) D. Oleoyl Coenzyme A (1 mM in sucrose buffer). Dissolve 10.3 mg oleoyl coenzyme A (Sigma 0-7002) in 10 mL sucrose buffer. Note: Store at −10° C. Dilute 5-fold to 200 μM with sucrose buffer just prior to assay.
(§7) E. [^14C]Cholesteryl—Labeled Microsomes or [^14C]Hexadecanol—Labeled Microsomes. Dilute a vial of stock microsomes to 4 mg protein per milliliter with sucrose buffer. For every 1 mL of diluted microsome solution, use glass syringe (Hamilton, [sequence], 1702) and transfer 2.5 μL of radiolabel to diluted microsomes by submerging syringe needle in the microsome solution and swirling while ejecting syringe contents. Flush syringe once with microsome solution. Determine dpm in small aliquot of solution by liquid scintillation counting (LSC). Need approximately 4×10^6 dpm/mL in the microsome solution.
(§8) G. Test Compound Solutions. Test compounds are weighed to make either 1 mM or 4 mM stock solutions in dimethylsulfoxide (DMSO). These solutions are used to prepare DMSO solutions containing 40 times the concentration of compound to be tested. These solutions may be prepared 24 hours prior to the assay and stored at room temperature.
(§9) a) Duplicate samples are prepared by adding 5 μL of test compound solution to each of two assay tubes. Controls and blanks receive 5 μL of DMSO. […]
(§10) h) Transfer 40 μL of the acidified solution to the pre-absorbent area of Whatman LK6D silica gel TLC plates, which are then dried on a hot plate for 5 minutes and developed in trimethylpentane/diethyl ether/acetic acid (75:25:2). The bands containing radiolabel are detected and quantitated by phosphorimaging with a Molecular Dynamics phosphorimager.
(§11) TLC will resolve free alcohol from its ester. The relative amount of radioactivity in each of those bands is determined by phosphorimaging. […]
Data set [2] concerns ACAT (acyl-Coenzyme A: cholesteryl acyltransferase).
Description: as §5
D. Oleoyl Coenzyme A (1 mM in sucrose buffer). […] Note: Store at −10° C. Dilute 5-fold to 200 μM with sucrose buffer just prior to assay.
E. [^14C]Cholesteryl—Labeled Microsomes or [^14C]Hexadecanol—Labeled Microsomes. Dilute a vial of stock microsomes to 4 mg protein per milliliter with sucrose buffer. […] Flush syringe once with microsome solution. Determine dpm in small aliquot of solution by liquid scintillation counting (LSC). Need approximately 4×10^6 dpm/mL in the microsome solution.
G. Test Compound Solutions. Test compounds are weighed to make either 1 mM or 4 mM stock solutions in dimethylsulfoxide (DMSO). These solutions are used to prepare DMSO solutions containing 40 times the concentration of compound to be tested. […]
as §10, §11
Data set [3] deals with AFAT (acyl-Coenzyme A: fatty alcohol acyltransferase).
Description: as §1, §2, §3, §4, §5, §6, §7, §8, §9, §10, §11

Where two headings read alike, the source gives them in different places.

As for `CCCCCCCCCCC(C)(C)C(=O)Nc1c(OC)cc(OC)cc1OC` [Compound 2, 2,2-dimethyl-N-(2,4,6-trimethoxyphenyl)-dodecanamide], the “Inhibition of WE synthesis in mouse preputial gland microsomes (in words)” value in data set [1] (inhibition curves of FIG. 1, 0.01 μM to 100 μM) is given as “no inhibition of WE synthesis”. The IC50 in data set [1] is greater than 100 µM.
`CC(C)c1cc(C(C)C)c(CC(=O)NS(=O)(=O)Oc2c(C(C)C)cccc2C(C)C)c(C(C)C)c1` [Compound 1, [(2,4,6-triisopropyl-phenyl)-acetyl]-sulfamic acid 2,6-diisopropyl-phenyl ester]: the “Inhibition of liver ACAT (in words)” value in data set [2] (inhibition curves of FIG. 1, printed as rat liver ACAT) is “potent inhibitors of rat liver ACAT”. Also, the concentration for half-maximal inhibition (IC50) was 0.09 µM in data set [2] (read-out: Inhibition of Cholesteryl Ester (CE) Synthesis IC50, mouse liver microsome preparation, [14C]cholesteryl label, oleoyl coenzyme A) and 13.9 µM in data set [1]. For the same compound, the “Inhibition of WE synthesis in mouse preputial gland microsomes (in words)” value in data set [3] was “unexpectedly inhibits WE synthesis”.
